{"source": "paper PMC9405102", "about": "“Targeted Modification and Structure-Activity Study of GL-29, an Analogue of the Antimicrobial Peptide Palustrin-2ISb” (Antibiotics, 2022)", "test_system": "S. aureus (ATCC CRM 6538)", "assay": "SYTOX Green dye uptake membrane permeability assay", "assay_type": "cell-based, Staphylococcus aureus", "conditions": "4 μM peptide, 2 h", "experimental": "Bacteria were inoculated into TSB medium (Gram-positive bacteria) or LB medium (Gram-negative bacteria) at 37 °C overnight, and then sub-cultured at 37 °C for about 2.5 h. Subsequently, the cell cultures were centrifuged at 1000× g at 4 °C for 10 min to collect bacteria cells at the bottom. After the cells were washed twice with 5% TSB or 5% LB in 0.85% NaCl solution, they were resuspended with 5% TSB or 5% LB in 0.85% NaCl solution to obtain a cell concentration of 1 × 10^8 CFU /mL by measuring the optical density (OD) value at 590 nm (Gram-positive bacteria: 0.68–0.72, Gram-negative bacteria: 0.65–0.7). The cell suspensions were then mixed with peptides at a range of concentrations, according to the MIC of antimicrobial assays, in a black 96 well plate and incubated for 2 h at 37 °C. After the incubation, the cells were stained with SYTOX^TM Green Nucleic Acid Stain (Thermo Fisher Scientific, Waltham, MA, USA) dissolved in 5% TSB in 0.85% NaCl to a final concentration of 5 μM and placed in a shaking incubator for 5 min avoiding from light. Bacterial cells treated with 16 μM melittin were used as positive control. The fluorescence intensity was measured with a Synergy HT plate reader (BioTek, USA) at excitation and emission wavelengths of 485 and 528 nm, respectively.", "note": "Where a SMILES comes first, the peptide text is derived from it."}
{"molecule": "CC[C@H](C)[C@H](NC(=O)[C@H](CCCCN)NC(=O)[C@@H](NC(=O)[C@H](CO)NC(=O)[C@H](CC(N)=O)NC(=O)[C@H](Cc1c[nH]c2ccccc12)NC(=O)[C@H](CC(C)C)NC(=O)CN)[C@@H](C)CC)C(=O)N[C@@H](C)C(=O)NCC(=O)N[C@@H](CCCCN)C(=O)N[C@@H](CCCCN)C(=O)N[C@@H](CC(C)C)C(=O)N[C@@H](Cc1ccccc1)C(=O)N[C@H](C(=O)N[C@@H](CC(N)=O)C(=O)N[C@H](C(=O)N[C@@H](CC(C)C)C(=O)N[C@@H](CC(=O)O)C(=O)N[C@@H](CCCCN)C(=O)N[C@H](C(=O)N[C@@H](CCCNC(=N)N)C(=O)N[C@H]1CSSC[C@@H](C(=O)O)NC(=O)CNC(=O)CNC(=O)[C@H](C)NC(=O)[C@H](C(C)C)NC(=O)[C@H](CCCCN)NC1=O)[C@@H](C)CC)C(C)C)C(C)C", "note": "[GL-29] (HELM PEPTIDE1{G.L.W.N.S.I.K.I.A.G.K.K.L.F.V.N.V.L.D.K.I.R.C.K.V.A.G.G.C}$PEPTIDE1,PEPTIDE1,23:R3-29:R3$$$V2.0; N-terminus and C-terminus assumed; bridges inferred)", "values": [{"measurement": "membrane permeabilisation (SYTOX Green uptake)", "value": 100, "unit": "%"}]}
